Results published in ChEMBL document CHEMBL1157845, “Structure-activity relationship of new anti-tuberculosis agents derived from oxazoline and oxazole benzyl esters” (Eur J Med Chem, 2010).
In brackets after ≈: the same amount, converted by molar mass. Activity calls are given as the source filed them. Unless noted, the rule behind the calls is not given here.

What was measured:
[1] = test system: Mycolicibacterium smegmatis; test: Antimycobacterial activity against Mycobacterium smegmatis; type: functional
[2] = test system: Mycobacterium tuberculosis; test: Antimycobacterial activity against Mycobacterium tuberculosis Erdman infected in BALB/c mouse assessed as reduction of bacterial load at 200 mg/kg, po qd for 5 days per week administered 60 days after infection measured after 85 days post infection; type: functional, organism-based; parameters: dose 200 mg/kg
[3] = test system: Mycobacterium tuberculosis; test: Antimycobacterial activity against Mycobacterium tuberculosis H37Rv; type: functional
Candida albicans = test: Antifungal activity against Candida albicans; type: functional, organism-based
[4] = test system: Mycolicibacterium fortuitum; test: Antimycobacterial activity against Mycobacterium fortuitum B by agar diffusion assay; type: functional, organism-based
[5] = test system: Mycobacterium tuberculosis; test: Antimycobacterial activity against Mycobacterium tuberculosis Erdman infected in BALB/c mouse assessed as reduction of bacterial load at 50 mg/kg, po qd for 5 days per week administered 60 days after infection measured after 85 days post infection; type: functional, organism-based; parameters: dose 50 mg/kg
Mycobacterium avium [6] = test: Antimycobacterial activity against Mycobacterium avium MAC 108; type: functional, organism-based
Mycobacterium avium [7] = test: Antimycobacterial activity against Mycobacterium avium MAC 116; type: functional, organism-based
Staphylococcus aureus = test: Antibacterial activity against Staphylococcus aureus SG 511; type: functional, organism-based
Colletotrichum = test: Antifungal activity against Glomerella; type: functional, organism-based
[8] = Chemical stability in simulated gastric fluid assessed as compound remaining after 2 hrs by HPLC analysis; type: physicochemical; details: simulated gi fluid
Mus musculus [9] = test: Toxicity in mouse assessed as change in gross appearance at 100 mg/kg, po qd for 5 days followed by 2 days rest and 200 mg/kg, po qd for 5 days; type: organism-based; details: in vivo
Mycolicibacterium vaccae [10] = test: Antimycobacterial activity against Mycobacterium vaccae 10670 by agar diffusion assay; type: functional, organism-based
Liver microsomes = test: Metabolic stability in Sprague-Dawley rat microsomes assessed as compound remaining after 15 mins by HPLC analysis; type: ADME, Microsome; details: 0.25 h
[11] = test system: Mycolicibacterium fortuitum; test: Antimycobacterial activity against Mycobacterium fortuitum B; type: functional, organism-based
Mycolicibacterium aurum [12] = test: Antimycobacterial activity against Mycobacterium aurum SB 66; type: functional, organism-based
Mus musculus [13] = test: Toxicity in mouse assessed as change in body weight at 100 mg/kg, po qd for 5 days followed by 2 days rest and 200 mg/kg, po qd for 5 days; type: organism-based; details: in vivo
Mycolicibacterium aurum [14] = test: Antimycobacterial activity against Mycobacterium aurum DSM 43536; type: functional, organism-based
[15] = test system: Mycolicibacterium smegmatis; test: Antimycobacterial activity against Mycobacterium smegmatis SG 987; type: functional, organism-based
Proteus vulgaris = test: Antibacterial activity against Proteus vulgaris OX 19; type: functional, organism-based
[16] = test system: Mycobacterium tuberculosis; test: Antimycobacterial activity against Mycobacterium tuberculosis H37Rv ATCC 27294 in GAST medium after 1 week by microplate alamar blue assay; type: functional; details: H37Rv ATCC 27294, 168 h
Mycobacterium avium [17] = test: Antimycobacterial activity against Mycobacterium avium MAC 101; type: functional, organism-based
Vero = test: Cytotoxicity against african green monkey Vero cells by colorimetric assay; type: cell-based; details: Chlorocebus sabaeus
Mycobacterium avium [18] = test: Antimycobacterial activity against Mycobacterium avium MAC 109; type: functional, organism-based
Bacillus subtilis = test: Antibacterial activity against Bacillus subtilis ATCC 6633; type: functional, organism-based
[19] = test system: Mycobacterium tuberculosis; test: Antimycobacterial activity against Mycobacterium tuberculosis H37Rv ATCC 27294 in GAS medium after 1 week by microplate alamar blue assay; type: functional; details: H37Rv ATCC 27294, 168 h
[20] = test system: Sporobolomyces salmonicolor; test: Antimicrobial activity against Sporobolomyces salmonicolor SBUG 549; type: functional, organism-based
Mycolicibacterium vaccae [21] = test: Antimycobacterial activity against Mycobacterium vaccae 10670; type: functional, organism-based
Escherichia coli = test: Antibacterial activity against Escherichia coli SG 458; type: functional, organism-based
Micrococcus luteus = test: Antibacterial activity against Micrococcus luteus ATCC 10240; type: functional, organism-based
Mycobacterium avium [22] = test: Antimycobacterial activity against Mycobacterium avium MAC 100; type: functional, organism-based
[23] = test system: Mycobacterium tuberculosis; test: Antimycobacterial activity against Mycobacterium tuberculosis H37Rv ATCC 27294 incubated 10 days under anaerobic condition measured after 24 hrs recovery in air by luciferase based low oxygen recovery assay; type: functional
Mus musculus [24] = test: Toxicity in mouse assessed as behavioral change at 100 mg/kg, po qd for 5 days followed by 2 days rest and 200 mg/kg, po qd for 5 days; type: organism-based; details: in vivo
[25] = test system: Mycobacterium tuberculosis; test: Antimycobacterial activity against Mycobacterium tuberculosis Erdman infected in BALB/c mouse assessed as reduction of bacterial load at 10 mg/kg, po qd for 5 days per week administered 60 days after infection measured after 85 days post infection relative to untreated control; type: functional
[26] = test system: Mycobacterium tuberculosis; test: Antimycobacterial activity against Mycobacterium tuberculosis assessed as growth inhibition at 12.5 ug/mL; type: functional
[27] = test system: Mycobacterium tuberculosis; test: Antimycobacterial activity against Mycobacterium tuberculosis; type: functional

With `CCCCCCCCCCCCCCCC(=O)N(O)CCCC[C@H](NC(=O)[C@@H]1COC(c2ccccc2O)=N1)C(=O)OC[C@H](NC(=O)OC(C)(C)C)C(=O)N[C@H]1CCCCN(O)C1=O` the MIC [1] was 0.2 µM (≈ 0.181 µg/mL), the Activity [2] was “inactive” and the MIC [3] was < 0.2 µM.

In the case of `O=C(OCc1ccccc1)c1coc(-c2ccc(F)c([N+](=O)[O-])c2)n1`, the Activity (Candida albicans) is reported as “inactive”, the Activity [4] is reported as “Active” and the Activity [5] is reported as “inactive”. For the same compound, the Activity (Mycobacterium avium [6]) was “inactive”, the Activity (Mycobacterium avium [7]) was “inactive” and the Activity (Staphylococcus aureus) was “inactive”. For the same compound, the Activity (Colletotrichum) was “inactive”, the Stability [8] was 2.1% and the Activity (Mus musculus [9]) was “Non-toxic”. For the same compound, the Activity (Mycolicibacterium vaccae [10]) was “Active”, the Stability (Liver microsomes) was 8.1% and the Activity [2] was “inactive”. The Activity [11] was “inactive”, the Activity (Mycolicibacterium aurum [12]) was “inactive” and the Activity (Mus musculus [13]) was 12%. The Activity (Mycolicibacterium aurum [14]) was “inactive”, the Activity [15] was “inactive” and the Activity (Proteus vulgaris) was “inactive”. The MIC [16] was 0.48 µM (≈ 0.164 µg/mL), the Activity (Mycobacterium avium [17]) was “inactive” and the IC50 (Vero) was > 128 µM. For the same compound, the Activity (Mycobacterium avium [18]) was “inactive”, the Activity (Bacillus subtilis) was “inactive” and the MIC [19] was 1.1 µM (≈ 0.377 µg/mL). The Activity [20] was “inactive”, the Activity (Mycolicibacterium vaccae [21]) was “inactive” and the Activity (Escherichia coli) was “inactive”. The Activity (Micrococcus luteus) was “inactive”, the Activity (Mycobacterium avium [22]) was “inactive” and the MIC [23] was 31.9 µM (≈ 10.9 µg/mL). The Activity (Mus musculus [24]) was “Non-toxic”.

With `CO[C@H]1/C=C/O[C@@]2(C)Oc3c(C)c(O)c4c(O)c(c(/C=N/N5CCN(C)CC5)c(O)c4c3C2=O)NC(=O)/C(C)=C\C=C\[C@H](C)[C@H](O)[C@@H](C)[C@@H](O)[C@@H](C)[C@H](OC(C)=O)[C@@H]1C` [RIFAMPIN] the MIC [16] was 0.01 µM (≈ 0.00823 µg/mL), the IC50 (Vero) was 125 µM and the MIC [19] was 0.06 µM (≈ 0.0494 µg/mL). The “fold change (FC)” value [25] was >2.

For `CCCCCCCCCCCCCCCC(=O)N(O)CCCC[C@H](NC(=O)[C@@H]1COC(c2ccccc2O)=N1)C(=O)O[C@@H](C)CC(=O)N[C@H]1CCCCN(O)C1=O` [MYCOBACTIN S], the Activity (Candida albicans) was “inactive”, the Activity [4] was “Active” and the Activity (Mycobacterium avium [6]) was “inactive”. For the same compound, the Activity (Mycobacterium avium [7]) was “inactive”, the Activity (Staphylococcus aureus) was “inactive” and the Activity (Colletotrichum) was “inactive”. The Activity (Mycolicibacterium vaccae [10]) was “Active”, the MIC [1] was 3.1 µM (≈ 2.49 µg/mL) and the Activity [2] was “inactive”. The Activity [11] was “inactive”, the Activity (Mycolicibacterium aurum [12]) was “inactive” and the Activity (Mycolicibacterium aurum [14]) was “inactive”. The Activity [15] was “inactive”, the Activity (Proteus vulgaris) was “inactive” and the Activity (Mycobacterium avium [17]) was “inactive”. For the same compound, the Activity (Mycobacterium avium [18]) was “inactive”, the Activity (Bacillus subtilis) was “inactive” and the inhibition at 12.5 µg/mL [26] was 99%. The Activity [20] was “inactive”, the Activity (Mycolicibacterium vaccae [21]) was “inactive” and the Activity (Escherichia coli) was “inactive”. The Activity (Micrococcus luteus) was “inactive” and the Activity (Mycobacterium avium [22]) was “inactive”.

In the case of `O=C(OCc1ccccc1)[C@@H]1COC(c2ccc(F)c([N+](=O)[O-])c2)=N1`, the Activity (Candida albicans) is reported as “inactive”, the Activity [4] is reported as “Active” and the Activity (Mycobacterium avium [6]) is reported as “inactive”. The Activity (Mycobacterium avium [7]) was “inactive”, the Activity (Staphylococcus aureus) was “inactive” and the Activity (Colletotrichum) was “inactive”. For the same compound, the Stability [8] was 2.2%, the Activity (Mus musculus [9]) was “Non-toxic” and the Activity (Mycolicibacterium vaccae [10]) was “Active”. For the same compound, the Stability (Liver microsomes) was 13%, the Activity [2] was “inactive” and the Activity [11] was “inactive”. The Activity (Mycolicibacterium aurum [12]) was “inactive”, the Activity (Mus musculus [13]) was “Non-toxic” and the Activity (Mycolicibacterium aurum [14]) was “inactive”. For the same compound, the Activity [15] was “inactive”, the Activity (Proteus vulgaris) was “inactive” and the MIC [16] was 0.95 µM (≈ 0.327 µg/mL). The Activity (Mycobacterium avium [17]) was “inactive”, the IC50 (Vero) was > 128 µM and the Activity (Mycobacterium avium [18]) was “inactive”. The Activity (Bacillus subtilis) was “inactive”, the MIC [19] was 6.24 µM (≈ 2.15 µg/mL) and the Activity [20] was “inactive”. The Activity (Mycolicibacterium vaccae [21]) was “inactive”, the Activity (Escherichia coli) was “inactive” and the Activity (Micrococcus luteus) was “inactive”. The Activity (Mycobacterium avium [22]) was “inactive”, the MIC [23] was 26 µM (≈ 8.95 µg/mL) and the Activity (Mus musculus [24]) was “Non-toxic”.

In the case of `O=C(OCc1ccccc1)c1coc(-c2ccccc2)n1`, the Activity (Candida albicans) is reported as “inactive”, the Activity [4] is reported as “Active” and the Activity (Mycobacterium avium [6]) is reported as “inactive”. For the same compound, the Activity (Mycobacterium avium [7]) was “inactive”, the Activity (Staphylococcus aureus) was “inactive” and the Activity (Colletotrichum) was “inactive”. For the same compound, the Stability [8] was 0.5%, the Activity (Mus musculus [9]) was “Non-toxic” and the Activity (Mycolicibacterium vaccae [10]) was “Active”. For the same compound, the Stability (Liver microsomes) was 15%, the Activity [2] was “inactive” and the Activity [11] was “inactive”. For the same compound, the Activity (Mycolicibacterium aurum [12]) was “inactive”, the Activity (Mus musculus [13]) was “Non-toxic” and the Activity (Mycolicibacterium aurum [14]) was “inactive”. The Activity [15] was “inactive”, the Activity (Proteus vulgaris) was “inactive” and the MIC [16] was 0.49 µM (≈ 0.137 µg/mL). The Activity (Mycobacterium avium [17]) was “inactive”, the IC50 (Vero) was 121 µM and the Activity (Mycobacterium avium [18]) was “inactive”. For the same compound, the Activity (Bacillus subtilis) was “inactive”, the MIC [19] was 0.47 µM (≈ 0.131 µg/mL) and the Activity [20] was “inactive”. For the same compound, the Activity (Mycolicibacterium vaccae [21]) was “inactive”, the Activity (Escherichia coli) was “inactive” and the Activity (Micrococcus luteus) was “inactive”. The Activity (Mycobacterium avium [22]) was “inactive”, the MIC [23] was 3.8 µM (≈ 1.06 µg/mL) and the Activity (Mus musculus [24]) was “Non-toxic”.

For `O=C(OCc1ccccc1)[C@@H]1COC(c2ccccc2OCc2ccccc2)=N1`, the Stability [8] was 1.4%, the Activity (Mus musculus [9]) was “Non-toxic” and the Stability (Liver microsomes) was 8.4%. The MIC [27] was 7.7 µM (≈ 2.98 µg/mL), the Activity [2] was “inactive” and the Activity (Mus musculus [13]) was “Non-toxic”. For the same compound, the IC50 (Vero) was > 128 µM, the MIC [19] was 12.6 µM (≈ 4.88 µg/mL) and the MIC [23] was 67.3 µM (≈ 26.1 µg/mL). For the same compound, the Activity (Mus musculus [24]) was “Non-toxic”.
